Source: patent US20230064324A1, “NEW USES FOR STEVIOL” (SUNTORY HOLDINGS LIMITED, priority 2019, published 2023)
Read-outs that look alike come from different tables or passages of the source.

Columns and labels:
CHOP [1] = assay: CHOP expression in neuronal cells under endoplasmic reticulum stress (RT-PCR); type: cell-based, Rat; conditions: pretreatment 1 h, tunicamycin 0.16 μM 24 h
Experimental: (§1) Neuronal cells were prepared as follows. PC12 cells were reconstituted by seeding at 2×10^6 cells/flask to a collagen IV-coated flask, and precultured for 3 days in the growth medium in a CO2 incubator.
(§2) The lysate was preserved at −80° C. until use.
(§3) The internal standard gene used was GAPDH gene.

GRP78 [2] = assay: GRP78 expression in neuronal cells under endoplasmic reticulum stress (RT-PCR); type: cell-based, Rat; conditions: pretreatment 24 h, tunicamycin 1.0 μM 24 h
Experimental: as §1, §2, §3

CHOP [3] = assay: CHOP expression in pancreatic cells (βTC6) under endoplasmic reticulum stress (RT-PCR); type: cell-based, Mouse; conditions: pretreatment 4 h, tunicamycin 0.16 μM 24 h
Experimental: as §2, §3

CHOP [4] = conditions: pretreatment 4 h, tunicamycin 0.65 μM 24 h
Experimental: (§4) Steviol was evaluated for its influence on endoplasmic reticulum stress in each type of cell by using endoplasmic reticulum stress markers CHOP and GRP78 as an index. The test cells used were neuronal cells (induced from PC12 cells), adipocytes (normal human subcutaneous preadipocytes, Cat. No. PT-5020, Lonza Group AG), hepatocytes (HepG2, Cat. No. JCRB1054, JCRB) and pancreatic cells (βTC6, ATCC® CRL-11506).
(§5) Hepatocytes were prepared as follow. HepG2 cells were seeded to a T75 flask and precultured for 1 day in a CO2 incubator using a growth medium (DMEM (high glucose, Cat. No. D5796, Sigma-Aldrich) supplemented with 10% FBS (Cat. No. 172012, Sigma-Aldrich), 1% penicillin-streptomycin (Cat. No. 09367-34, Nacalai Tesque, Inc.)).
(§6) 4PA (P21005, Sigma-Aldrich Co., LLC) was dissolved in a medium and then added at a predetermined concentration to a differentiation medium or a growth medium.
(§7) After the completion of endoplasmic reticulum stress induction treatment, the expression levels of CHOP and GRP78 were measured to evaluate the degree of endoplasmic reticulum stress. First, FasteLane lysate (RNA) was prepared for RNA extraction using FastLane Cell Probe kit (Cat. No. 216413, Qiagen N.V.). After removal of the medium, each well was washed by the addition of 125 μL of Buffer FCW and its immediate removal. Then, 50 μL of Cell processing mix was added to each well, followed by incubation at room temperature for 5 minutes to prepare FasteLane lysate. Next, the FasteLane lysate was transferred to a PCR tube and incubated at 75° C. for 5 minutes. The lysate was preserved at −80° C. until use.
(§8) Gene expression analysis was carried out by the following procedures. One Step real-time RT-PCR was performed with the composition of Table 8 using QuantiTect Probe RT-PCR Kit attached to FastLane Cell Probe kit.
(§9) RT-PCR reaction was performed under conditions of 50° C. for 30 minutes, 95° C. for 15 minutes, and (94° C. for 15 seconds and 60° C. for 60 seconds)×40 cycles. The internal standard gene used was GAPDH gene. A relative expression level was calculated by the ΔΔCt method. Significant difference among tunicamycin addition groups (vehicle group vs positive control group/steviol addition group) was tested by the Dunnett test.

GRP78 [5] = conditions: pretreatment 4 h, tunicamycin 0.65 μM 24 h
Experimental: as §4, §5, §6, §7, §8, §9

GRP78 [6] = assay: GRP78 expression in pancreatic cells (βTC6) under endoplasmic reticulum stress (RT-PCR); type: cell-based, Mouse; conditions: pretreatment 4 h, tunicamycin 0.16 μM 24 h
Experimental: as §2, §3

CHOP [7] = assay: CHOP expression in adipocytes under endoplasmic reticulum stress (RT-PCR); type: cell-based, Human; conditions: pretreatment 24 h, tunicamycin 0.65 μM 24 h
Experimental: (§10) Adipocytes were prepared as follows. Normal human subcutaneous preadipocytes were reconstituted in a T75 flask using a growth medium (PBM-2 medium, Cat. No. PT-8002, Lonza, supplemented with 10% FBS, 2 mM L-glutamine, 50 μg/mL gentamycin, and 37 ng/mL amphotericin-B), and precultured for 3 days in a CO2 incubator (37° C., 5% CO2; the same holds true for the description below).
as §2, §3

GRP78 [8] = assay: GRP78 expression in adipocytes under endoplasmic reticulum stress (RT-PCR); type: cell-based, Human; conditions: pretreatment 24 h, tunicamycin 0.65 μM 24 h
Experimental: as §10, §2, §3

PC12 cells (clone HS) = assay: Neurite elongation-promoting effect on PC12 cells (neurite length per cell, Operetta CLS); type: cell-based, Rat; conditions: positive control, 50 ng/mL NGF, 3 days, negative control=100%
Experimental: PC12 cells (clone HS) were precultured using a growth medium in the same manner as in Example 1. […] The cells thus cultured were subjected to cell membrane staining using Cell Membrane Stain attached to Neurite Outgrowth Staining Kit (Thermo Fisher Scientific Inc.) and nuclear staining using Hoechst 33342 (Cat. No. H3570). Specifically, the medium was replaced with 100 μL of a fixative and staining solution (prepared by adding a 1/1000 amount each of Cell Membrane Stain (1000×) and Hoechst 33342 and a 1/25 amount of a formaldehyde solution (Cat. No. 061-00416, FUJIFILM Wako Pure Chemical Corp.) to DPBS (++) (Cat. No. 14040133, Thermo Fisher Scientific Inc.)), followed by incubation for 20 minutes in a CO2 incubator (5% CO2, 37° C., humid). […] Photographing and quantitative analysis were carried out using Operetta CLS (Perkin Elmer, Inc.), and a neurite length per cell was calculated. Nine fields of view at the center of each well were photographed using a 10× objective lens. A test medium supplemented with 50 ng/mL NGF was used as a positive control, and a vehicle control composed of a differentiation medium supplemented with 0.1% DMSO (final concentration) was used as a negative control.

## IGF-1: positive control, 100 ng/mL IGF-1 (Cat. No. SRP4121, Sigma-Aldrich)
CHOP [1]; IGF-1 100 ng/mL
  Expression level of CHOP in neuronal cells (relative to GAPDH, untreated=1): 5.97
GRP78 [2]; IGF-1 100 ng/mL
  Expression level of GRP78 in neuronal cells (relative to GAPDH, untreated=1): 19.77

## O=C(O)CCCc1ccccc1 [4PA, reference compound]
CHOP [1]; 4PA 0.1 mM
  Expression level of CHOP in neuronal cells (relative to GAPDH, untreated=1): 6.04
CHOP [1]; 4PA 0.3 mM
  Expression level of CHOP in neuronal cells (relative to GAPDH, untreated=1): 5.87
GRP78 [2]; 4PA 0.1 mM
  Expression level of GRP78 in neuronal cells (relative to GAPDH, untreated=1): 19.72
GRP78 [2]; 4PA 0.3 mM
  Expression level of GRP78 in neuronal cells (relative to GAPDH, untreated=1): 20.05
CHOP [3]; 4PA 0.3 mM
  Expression level of CHOP in pancreatic cells (relative to GAPDH, untreated=1): 2.53
CHOP [3]; 4PA 1 mM
  Expression level of CHOP in pancreatic cells (relative to GAPDH, untreated=1): 1.78
CHOP [3]; 4PA 3 mM
  Expression level of CHOP in pancreatic cells (relative to GAPDH, untreated=1): 1.71
CHOP [3]; 4PA 10 mM
  Expression level of CHOP in pancreatic cells (relative to GAPDH, untreated=1): 2.47
CHOP [4]; 4PA 0.1 mM
  Expression level of CHOP in hepatocytes (relative to GAPDH, untreated=1): 3.23
CHOP [4]; 4PA 0.3 mM
  Expression level of CHOP in hepatocytes (relative to GAPDH, untreated=1): 2.79
CHOP [4]; 4PA 1 mM
  Expression level of CHOP in hepatocytes (relative to GAPDH, untreated=1): 2.13
GRP78 [5]; 4PA 0.1 mM
  Expression level of GRP78 in hepatocytes (relative to GAPDH, untreated=1): 2.82
GRP78 [5]; 4PA 0.3 mM
  Expression level of GRP78 in hepatocytes (relative to GAPDH, untreated=1): 2.49
GRP78 [5]; 4PA 1 mM
  Expression level of GRP78 in hepatocytes (relative to GAPDH, untreated=1): 1.96
GRP78 [6]; 4PA 0.3 mM
  Expression level of GRP78 in pancreatic cells (relative to GAPDH, untreated=1): 2.33
GRP78 [6]; 4PA 1 mM
  Expression level of GRP78 in pancreatic cells (relative to GAPDH, untreated=1): 2.37
GRP78 [6]; 4PA 3 mM
  Expression level of GRP78 in pancreatic cells (relative to GAPDH, untreated=1): 1.66
GRP78 [6]; 4PA 10 mM
  Expression level of GRP78 in pancreatic cells (relative to GAPDH, untreated=1): 1.22
CHOP [7]; 4PA 0.1 mM
  Expression level of CHOP in adipocytes (relative to GAPDH, untreated=1): 3.52
CHOP [7]; 4PA 1 mM
  Expression level of CHOP in adipocytes (relative to GAPDH, untreated=1): 3.22
GRP78 [8]; 4PA 0.1 mM
  Expression level of GRP78 in adipocytes (relative to GAPDH, untreated=1): 4.78
GRP78 [8]; 4PA 1 mM
  Expression level of GRP78 in adipocytes (relative to GAPDH, untreated=1): 4.25

## NGF: positive control, 50 ng/mL NGF (Cat. No. 13257019, Thermo Fisher Scientific), differentiation inducer
PC12 cells (clone HS)
  Relative neurite length (%): 269.4%
